Read-outs that look alike come from different tables or passages of the source.
Key:
male mice (Slc: ddy) [1] = assay: Analgesic effect examined by acetic acid-writhing test; format: in vivo; conditions: subcutaneous injection 30 minutes before 0.6% acetic acid i.p., writhings counted within 10 minutes, 7 mice per group
Method: Example 8 Analgesic Effect Examined by Acetic Acid- Writhing Test:
Male mice (Slc: ddy) aged 5 weeks were divided into groups each having 7 animals. […] After 30 minutes, 0.6% acetic acid was intraperitoneally administered to each mouse in a dose of 0.1 ml/10 g. 10 minutes thereafter, the writhings thus induced were counted within 10 minutes. […] The acetic acid-writhing test was conducted according to a method reported by R. Koster, M. Anderson and E.I. Debeer [refer to Fed. Proc., 18, 412 (1959)].

[2] = system: extirpated guinea pig ileum pieces; assay: Transmural electric stimulation test on an extirpated guinea pig ileum piece (smooth muscle contraction); format: cell-based; conditions: for pD₂: transmural electric stimulation 0.1 Hz, smooth muscle contraction
Method: Example 7 Transmural Electric Stimulation Test on an Extirpated Guinea Pig Ileum Piece:
The effects of the compounds were examined by applying transmural electric stimulation (0.1 Hz) to extirpated guinea pig ileum pieces while using the smooth muscle contraction as an indication [refer to H.K. Kopsterlitz, A.A. Waterfield; Annu. Rev. Pharmacol., 15, 29 - 47 (1975)].
The data shown in Table 1 were calculated according to a method reported by Arunlakshana and Schild [refer to 0. Arunlakashana, H.O. Schild; Brit. J. Pharmacol., 14, 48 - 58 (1959)]. Each value is expressed in mean ± standard deviation.

male mice (Slc: ddy) [3] = assay: Analgesic examination by radiant heat-stimulation test (tail irradiation, pain threshold); format: in vivo; conditions: for analgesic effect (pain threshold): range 0.03 to 1.0 mg/kg
Method: Example 6 Analgesic Examination by Radiant Heat-Stimulation Test:
Each group had 7 animals. An hour after the injection, the analgesic effect of each compound was examined by radiant heat-stimulation test [refer to A.G. Hayes, M.J. Sheehan, M.B. Tyers; Brit. J. Pharmacol., 91, 111 - 115 (1987)]. Namely, the tail of each mouse was irradiated with intense light and the time required until the animal switched its tail was measured. The value thus measured was referred to as the pain threshold.

[4] = antagonism by naloxone, method of Arunlakshana and Schild, mean ± standard deviation
[5] = subcutaneous, an hour after the injection, p < 0.01 in Dunnett's t-test
[6] = subcutaneous, an hour after the injection

`CC(C)=CCN1CCC2(C)c3cc(O)ccc3CC1C2C` (stereo not shown) [Pentazocine, reference compound] showed an ED50 (male mice (Slc: ddy) [1]; Mus musculus, sc, read-out: ED₅₀) of 0.869 mg/kg.

In the case of `CCC(=O)Oc1ccc2c3c1O[C@H]1[C@H](SC(=O)CC)C=C[C@H]4[C@@H](C2)N(CC2CC2)CC[C@@]341` [Compound IX, 3-propionyl-6β-propionylthio-cyclopropylmethylnormorphine], the ED₅₀ (male mice (Slc: ddy) [1]) is reported as 0.047 mg/kg.

With `CC(=O)S[C@@H]1C=C[C@H]2[C@H]3Cc4ccc(O)c5c4[C@@]2(CCN3CC2CC2)[C@H]1O5` [Compound VI, 6β-acetylthio-N-cyclopropylmethylnormorphine] the “pA₂ (naloxone)” value [2, 4] was 7.75 ± 0.12, the pD₂ ([2]; mean ± standard deviation) was 8.38 ± 0.06 and the “dose with statistically significant analgesic effect” value (male mice (Slc: ddy) [3]; [5]) was 1.0 mg/kg. For the same compound, the “analgesic effect (pain threshold)” value (male mice (Slc: ddy) [3]; [6]) was “analgesic effect depending on dose”.

`CN1CC[C@]23c4c5ccc(O)c4O[C@H]2[C@@H](O)C=C[C@H]3[C@H]1C5.Cl` [Morphine hydrochloride, reference compound] was tested, and the “pA₂ (naloxone)” value [2] was 8.45 ± 0.13 and the “dose with statistically significant analgesic effect” value (male mice (Slc: ddy) [3]; mouse, in vivo, sc) was no less than 3.2 mg/kg.

In the case of `CC(=O)Oc1ccc2c3c1O[C@H]1[C@H](SC(C)=O)C=C[C@H]4[C@@H](C2)N(CC2CC2)CC[C@@]341.Cl` [Compound VII, 3-acetyl-6β-acetylthio-N-cyclopropylmethylnormorphine hydrochloride], the “pA₂ (naloxone)” value [2, 4] is reported as 7.80 ± 0.13, the pD₂ ([2]; mean ± standard deviation) is reported as 9.01 ± 0.16 and the ED₅₀ (male mice (Slc: ddy) [1]) is reported as 0.062 mg/kg. For the same compound, the “dose with statistically significant analgesic effect” value (male mice (Slc: ddy) [3]; [5]) was 1.0 mg/kg and the “analgesic effect (pain threshold)” value (male mice (Slc: ddy) [3]; [6]) was “analgesic effect depending on dose”.

Reference: EP0374919A1, “Morphine derivative” (Chugai Seiyaku Kabushiki Kaisha, priority 1988, dated 1990)
